Experimental data published in patent publication US10183938B2, “Geminal substituted quinuclidine amide compounds as agonists of α-7 nicotonic acetylcholine receptors” (AXOVANT SCIENCES GMBH, priority 2014, dated 2019).
Structures can show the parent of a compound that is named as a salt.

How the values were obtained:
[1] = target: human α7 nAChRs transiently expressed in Xenopus laevis oocytes (Homo sapiens (Human), UniProt P36544); test: Oocyte electrophysiology screen (TEVC); format: cell-based; details: 0.01 mM test compound, peak current relative to 0.2 mM ACh
human α7 nAChRs transiently expressed in Xenopus laevis oocytes, sequence (P36544 23-502 limits assumed): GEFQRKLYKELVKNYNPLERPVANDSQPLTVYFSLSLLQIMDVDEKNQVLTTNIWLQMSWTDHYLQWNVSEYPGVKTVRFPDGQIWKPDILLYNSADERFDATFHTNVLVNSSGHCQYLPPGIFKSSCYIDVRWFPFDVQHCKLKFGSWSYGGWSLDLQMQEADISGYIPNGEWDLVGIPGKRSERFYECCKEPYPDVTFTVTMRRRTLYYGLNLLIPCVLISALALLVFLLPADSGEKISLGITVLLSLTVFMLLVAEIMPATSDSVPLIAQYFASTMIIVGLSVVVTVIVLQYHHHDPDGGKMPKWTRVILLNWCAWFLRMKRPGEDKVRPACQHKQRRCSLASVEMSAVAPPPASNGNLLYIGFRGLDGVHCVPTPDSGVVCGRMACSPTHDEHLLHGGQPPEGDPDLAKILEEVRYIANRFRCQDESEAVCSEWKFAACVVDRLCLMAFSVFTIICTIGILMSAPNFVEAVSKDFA
Outline: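 Oocytes expressing human α7 were clamped at −80 mV by TEVC. After a 0.2 mM ACh control pulse, test compound was applied at 0.01 mM for 30 s. Agonist response is peak current as % of the ACh response, in triplicate.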

male Wistar rats = test: Novel Object Recognition task (natural forgetting); format: in vivo, rat; details: sub-cutaneous, 30 minutes before T1, 48-hour retention interval, p<0.05 novel vs. familiar object
Description: Novel Object Recognition Task:
The Novel Object Recognition (NOR) task is a behavioral assay commonly used to evaluate cognition, particularly recognition memory, in rodent models of CNS disorders. This test is based on the spontaneous tendency of rodents to spend more time exploring a novel object compared to a familiar one. The choice to explore the novel object reflects the use of learning and recognition memory. The assay is commonly used to evaluate potential therapeutic agents for Alzheimer's disease, other neurodegenerative diseases and psychiatric disorders.
Male Wistar rats (Harlan Laboratories) weighing 350-400 grams were housed under a reversed light cycle and are tested during the dark cycle. Testing was done under low lux conditions, measured to be ˜2-7 lux under red light. Animals were habituated and weighed one day prior to testing. During habituation, animals were placed in a cylindrical arena and allowed to explore for 3 minutes. Training (T1) was conducted approximately 24 hours later, with one set of identical objects placed on opposite sides of the arena. Animals were allowed to explore the objects in 3-minute sessions. Animals were dosed with a designated treatment 15-60 minutes prior to testing depending on the pharmacokinetic profile of the compound before the start of T1. Drug or vehicle was dosed subcutaneously based on body weight at 5 mL/kg. Testing (T2) was done at 48 hours after T1. During testing, one familiar object is replaced with a novel object. Animals were allowed to explore both objects in 3-minute sessions.
Animals were tracked using Noldus Ethovision XT (EthoVision XT version: 8.5, Noldus Inc. Wageningen, Netherlands) tracking software, using a 2 centimeter (cm) perimeter for each object as a separate zone. The test arena consisted of a cylinder, 80 cm diameter with 40 cm high walls of black acrylic that was opaque and matte. […]
Contact time was defined as the amount of time (seconds) an animal spent within the 2 cm perimeter of an object. […] Statistical significance was determined using a Mann Whitney U-test and the criterion was set at p<0.05. […]

[2] = target: human 5-HT3 serotonin receptors (Homo sapiens (Human), UniProt P46098); test: [3H]BRL 43694 competition binding; details: CHO cell membranes, [3H]BRL 43694, Cheng Prusoff; read-out: h-5HT3 Ki
human 5-HT3 serotonin receptors, sequence (P46098 24-478): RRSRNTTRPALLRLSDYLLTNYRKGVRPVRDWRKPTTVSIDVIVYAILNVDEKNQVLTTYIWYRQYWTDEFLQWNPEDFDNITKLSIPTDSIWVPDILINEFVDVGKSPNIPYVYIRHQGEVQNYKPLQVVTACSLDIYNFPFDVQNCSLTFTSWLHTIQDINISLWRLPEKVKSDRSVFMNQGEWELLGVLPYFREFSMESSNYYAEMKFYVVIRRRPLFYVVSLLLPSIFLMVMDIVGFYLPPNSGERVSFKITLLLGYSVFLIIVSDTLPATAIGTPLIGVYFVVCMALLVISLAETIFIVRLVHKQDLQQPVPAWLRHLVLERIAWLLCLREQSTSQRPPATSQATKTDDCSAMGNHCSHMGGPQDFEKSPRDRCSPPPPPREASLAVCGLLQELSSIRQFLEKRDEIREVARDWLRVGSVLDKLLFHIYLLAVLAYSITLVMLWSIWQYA

Structure (SMILES) | % ACh @ 10 μM Oocyte ([1]; hydrochloride) [% ACh] | Active doses (male Wistar rats) [mg/kg] | Ki [2] [nM] | % ACh @ 10 μM Oocyte [1] [% ACh]
Cc1ccc2cc(C(=O)NC3C4CCN(CC4)C34CC4)sc2c1 (single isomer, unassigned; enantiomer1) [68a, 6-methyl-N-(1′-azaspiro[cyclopropane-1,2′-bicyclo[2.2.2]octan]-3′-yl)benzo[b]thiophene-2-carboxamide-enantiomer1 hydrochloride] | 769 | 0.001 | – | –
O=C(NC1C2CCN(CC2)C12CC2)c1cc2ccc(Cl)cc2s1 (single isomer, unassigned; enantiomer1) [65a, 6-chloro-N-(1′-azaspiro[cyclopropane-1,2′-bicyclo[2.2.2]octan]-3′-yl)benzo[b]thiophene-2-carboxamide-enantiomer1 hydrochloride] | 682 | 0.3 | – | –
CC1(C)[C@H](NC(=O)c2cc3ccc(Cl)cc3s2)C2CCN1CC2 [(R)-12, (R)-6-chloro-N-(2,2-dimethylquinuclidin-3-yl)benzo[b]thiophene-2-carboxamide hydrochloride] | – | 30 | > 10000 | 765
O=C(NC1C2CCN(CC2)C12CC2)c1cc2cccc(C(F)(F)F)c2s1 (single isomer, unassigned; enantiomer1) [60a, N-(1′-azaspiro[cyclopropane-1,2′-bicyclo[2.2.2]octan]-3′-yl)-7-(trifluoromethyl)benzo[b]thiophene-2-carboxamide-enantiomer1] | – | – | 1010 | 501
O=C(N[C@@H]1C2CCN(CC2)C12CC2)c1cc2ccc(N3CCOCC3)cc2s1 [(R)-99, (R)-6-morpholino-N-(1′-azaspiro[cyclopropane-1,2′-bicyclo[2.2.2]octan]-3′-yl)benzo[b]thiophene-2-carboxamide hydrochloride] | – | – | > 10000 | 1
Cc1csc2ccc(C(=O)N[C@@H]3C4CCN(CC4)C34CC4)cc12 [(R)-77, (R)-3-methyl-N-(1′-azaspiro[cyclopropane-1,2′-bicyclo[2.2.2]octan]-3′-yl)benzo[b]thiophene-5-carboxamide hydrochloride] | – | – | 660 | 547
Cc1ccc2cc(C(=O)N[C@@H]3C4CCN(CC4)C3(C)C)sc2c1F [(R)-53, (R)—N-(2,2-dimethylquinuclidin-3-yl)-7-fluoro-6-methylbenzo[b]thiophene-2-carboxamide hydrochloride] | – | – | 5900 | 576
CC1(C)[C@H](NC(=O)c2cc3ccc(C(F)(F)F)cc3s2)C2CCN1CC2 [(R)-10, (R)—N-(2,2-dimethylquinuclidin-3-yl)-6-(trifluoromethyl)benzo[b]thiophene-2-carboxamide hydrochloride] | – | – | > 10000 | 1
CC1(C)[C@H](NC(=O)c2cc3ccc(S(C)(=O)=O)cc3s2)C2CCN1CC2 [(R)-48, (R)—N-(2,2-dimethylquinuclidin-3-yl)-6-(methylsulfonyl)benzo[b]thiophene-2-carboxamide hydrochloride] | – | – | > 10000 | 0
CC1(C)[C@H](NC(=O)c2cc3cccnc3s2)C2CCN1CC2 [(R)-28, (R)—N-(2,2-dimethylquinuclidin-3-yl)thieno[2,3-b]pyridine-2-carboxamide hydrochloride] | – | – | > 10000 | 321
CC1(C)[C@H](NC(=O)c2cc3cccc(Cl)c3s2)C2CCN1CC2 [(R)-3, (R)-7-chloro-N-(2,2-dimethylquinuclidin-3-yl)benzo[b]thiophene-2-carboxamide hydrochloride] | – | – | 270 | 304
Cc1csc2ccc(C(=O)N[C@@H]3C4CCN(CC4)C3(C)C)cc12 [(R)-24, (R)—N-(2,2-dimethylquinuclidin-3-yl)-3-methylbenzo[b]thiophene-5-carboxamide hydrochloride] | – | – | 820 | 240
O=C(N[C@@H]1C2CCN(CC2)C12CC2)c1cc2ccsc2cn1 [(R)-97, (R)—N-(1′-azaspiro[cyclopropane-1,2′-bicyclo[2.2.2]octan]-3′-yl)thieno[2,3-c]pyridine-5-carboxamide hydrochloride] | – | – | 430 | 816
O=C(N[C@@H]1C2CCN(CC2)C12CC2)c1ccc2c(c1)OCCO2 [(R)-107, (R)—N-(1′-azaspiro[cyclopropane-1,2′-bicyclo[2.2.2]octan]-3′-yl)-2,3-dihydrobenzo[b][1,4]dioxine-6-carboxamide hydrochloride] | – | – | > 10000 | 414
Cc1ccc2sc(C(=O)N[C@@H]3C4CCN(CC4)C3(C)C)cc2c1 [(R)-16, (R)—N-(2,2-dimethylquinuclidin-3-yl)-5-methylbenzo[b]thiophene-2-carboxamide hydrochloride] | – | – | 2500 | 74
CC1(C)[C@H](NC(=O)c2ccc3ccsc3c2)C2CCN1CC2 [(R)-5, (R)—N-(2,2-dimethylquinuclidin-3-yl)benzo[b]thiophene-6-carboxamide hydrochloride] | – | – | 1900 | 282
